T1: PgaA-32-367 (Escherichia coli, UniProt P69434)
T1 construct: His6 (thrombin cleavable, pET28) (N); made in house; host or cells: E. coli BL21 CodonPlus
T1 sequence (P69434 32-367): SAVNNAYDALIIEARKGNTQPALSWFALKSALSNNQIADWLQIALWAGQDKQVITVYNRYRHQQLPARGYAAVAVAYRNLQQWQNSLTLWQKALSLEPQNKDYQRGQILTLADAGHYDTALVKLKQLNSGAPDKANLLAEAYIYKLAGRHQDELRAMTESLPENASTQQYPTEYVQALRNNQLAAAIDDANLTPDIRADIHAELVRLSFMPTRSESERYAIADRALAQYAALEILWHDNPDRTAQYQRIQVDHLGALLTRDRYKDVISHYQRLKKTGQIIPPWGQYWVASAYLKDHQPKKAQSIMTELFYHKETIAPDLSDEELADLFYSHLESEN

T2: PgaA-220-367 (Escherichia coli, UniProt P69434)
T2 construct: His6 (thrombin cleavable, pET28) (N); made in house; host or cells: E. coli BL21 CodonPlus (DE3)
T2 sequence (P69434 220-367): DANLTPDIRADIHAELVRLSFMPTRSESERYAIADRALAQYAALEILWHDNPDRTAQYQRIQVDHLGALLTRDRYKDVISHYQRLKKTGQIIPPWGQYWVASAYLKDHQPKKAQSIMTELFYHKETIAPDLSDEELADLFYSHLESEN

B1: PgaA: E. coli PgaA residues 32–807, TPR domain plus outer membrane porin (protein)
chain: SAVNNAYDALIIEARKGNTQPALSWFALKSALSNNQIADWLQIALWAGQDKQVITVYNRYRHQQLPARGYAAVAVAYRNLQQWQNSLTLWQKALSLEPQNKDYQRGQILTLADAGHYDTALVKLKQLNSGAPDKANLLAEAYIYKLAGRHQDELRAMTESLPENASTQQYPTEYVQALRNNQLAAAIDDANLTPDIRADIHAELVRLSFMPTRSESERYAIADRALAQYAALEILWHDNPDRTAQYQRIQVDHLGALLTRDRYKDVISHYQRLKKTGQIIPPWGQYWVASAYLKDHQPKKAQSIMTELFYHKETIAPDLSDEELADLFYSHLESENYPGALTVTQHTINTSPPFLRLMGTPTSIPNDTWLQGHSFLSTVAKYSNDLPQAEMTARELAYNAPGNQGLRIDYASVLQARGWPRAAENELKKAEVIEPRNINLEVEQAWTALTLQEWQQAAVLTHDVVEREPQDPGVVRLKRAVDVHNLAELRIAGSTGIDAEGPDSGKHDVDLTTIVYSPPLKDNWRGFAGFGYADGQFSEGKGIVRDWLAGVEWRSRNIWLEAEYAERVFNHEHKPGARLSGWYDFNDNWRIGSQLERLSHRVPLRAMKNGVTGNSAQAYVRWYQNERRKYGVSWAFTDFSDSNQRHEVSLEGQERIWSSPYLIVDFLPSLYYEQNTEHDTPYYNPIKTFDIVPAFEASHLLWRSYENSWEQIFSAGVGASWQKHYGTDVVTQLGYGQRISWNDVIDAGATLRWEKRPYDGDREHNLYVEFDMTFRF
modifications: left off: His6, N-terminal, kept
notes: E. coli PgaA residues 32–807, TPR domain plus outer membrane porin

Tests used:
PgaA-32-220 = test: ESI-MS binding test, PgaA-32-220; design: species or system E. coli; details: sample partially degraded
Procedure: PgaA32-220 was analyzed using the SolariX 15 T FT-ICR mass spectrometer (Bruker-Daltonics, Billerica, MA), equipped with a dynamically harmonized ParaCell and nanoESI source. […] The instrumental parameters for these measurements were: glass capillary exit voltage (200 V); source drying gas (N2, 4 L/min and 120°C); deflector plate (220 V). The RF amplitude of the ion-funnels was 300 V peak-to-peak, and the applied voltages were 150 V and 6 V for funnels 1 and 2, respectively. The voltage of skimmer 1 was 30 V and the skimmer 2 voltage was 5 V. Accumulation time in the hexapole collision cell was 0.7 s; the time-of-flight was 2 ms. The operating pressure in UHV region was ~5×10^−10 mbar. Data acquisition was performed using the FtmsControl software (version 2.2). The time-domain signal, consisting of the sum of 25 transients, containing 2M data points per transient, was subjected to one zero-fill prior to Fourier-transform.

PgaA-32-367 = target: T1, PgaA-32-367; test: Direct ESI-MS binding assay, PgaA-32-367; design: species or system E. coli; details: 25°C and pH 7, direct ESI-MS assay; for Kd: read-out: Kd, TPR region 32–367
Procedure: (§1) Solutions of PgaA220-367 (5.7 μM) and PgaA32-367 (11.6 μM) were used for binding assay. […] Binding measurements were carried out in positive ion mode using a Synapt G2S ESI-Q-IMS-TOF mass spectrometer (Waters, Manchester, UK) equipped with nanoflow ESI (nanoESI) source. NanoESI was performed by applying a voltage of ~1 kV to a platinum wire inserted into the nanoESI tip, which was produced from a borosilicate glass capillary (1.0 mm o.d., 0.68 mm i.d.) pulled to ~5 μm o.d. using a P−1000 micropipette puller (Sutter Instruments, Novato, CA). The source temperature and gas flow rate was 60°C and 2 mL/min, respectively. The Cone, Trap and Transfer voltages were 20 V, 3 V and 1 V, respectively. MassLynx software (version 4.1) was used for data acquisition and processing.
(§2) The Kd for protein (P)—ligand (L) binding was calculated from the abundance ratio of L-bound to free P ions (i.e., R), measured by ESI-MS: R = Ab(PL)/Ab(P) = [PL]/[P], Kd = [P][L]/[PL] = [L]0/R—[P]0/(R+1), where [P]0 and [L]0 are initial concentrations of protein and ligand, correspondingly. Non-specific protein-ligand binding was corrected as published.

PgaA-220-367 = target: T2, PgaA-220-367; test: Direct ESI-MS binding assay, PgaA-220-367; design: species or system E. coli; details: 25°C and pH 7, direct ESI-MS assay; for Kd: read-out: Kd, TPR region 220–367
Procedure: as §1, §2

[1] = Fluorescamine de-acetylation assay; assay type: biochemical; details: 30 μM enzyme and 30 mM PNAG hexamer; fluorescamine readout
Procedure: To determine whether the modulation of enzyme activity might be a common theme for the TPR domain across synthase-dependent systems, we assayed the deacetylase and glycoside hydrolase activities of PgaB in the presence and absence of PgaA. As we used co-expression to obtain the complexes, a SDS PAGE gel of the purified solutions of PgaA, PgaB and PgaA/B complexes was analyzed to ensure that equal quantities of the protein/protein complex were used (Fig 2A). Consistent with previous published studies, PgaA and PgaB appear to form a 1:1 complex. The deacetylase activity was assessed using a fluorescamine-based assay with fully acetylated PNAG hexamers as the substrate. As fluorescamine detects the presence of primary amines, which are generated during the deacetylation of the PNAG oligosaccharide, this assay provides a direct readout of the deacetylation activity of PgaB. To assess the glycoside hydrolase activity, we used a biofilm disruption assay, which has been used previously to characterize PgaB’s glycosidase activity. In this assay, biofilms of Staphylococcus epidermidis strain SE801 were grown in 96 well plates for 24 h, at which point PgaB was added. After a further 2 h, the reaction was quenched, plates washes and the amount of adherent biofilm remaining quantified using crystal violet staining. […]

Molecule	binding to TPR region 32–220 (PgaA-32-220)	Kd (PgaA-32-367) [µM]	Kd (PgaA-220-367) [µM]	Kd, TPR region 32–367 (PgaA-32-367)	Kd, TPR region 220–367 (PgaA-220-367)	concentration of GlcN produced [1] [µM]
CC(=O)N[C@H]1[C@H](OC[C@H]2O[C@@H](OC[C@H]3O[C@@H](OC[C@H]4O[C@@H](OC[C@H]5OC(O)[C@H](NC(C)=O)[C@@H](O)[C@@H]5O)[C@H](NC(C)=O)[C@@H](O)[C@@H]4O)[C@H](NC(C)=O)[C@@H](O)[C@@H]3O)[C@H](NC(C)=O)[C@@H](O)[C@@H]2O)O[C@H](CO)[C@@H](O)[C@@H]1O (stereo partly drawn)	No binding	10000	1700	–	–	–
CC(=O)N[C@H]1[C@H](OC[C@H]2O[C@@H](OC[C@H]3O[C@@H](OC[C@H]4O[C@@H](OC[C@H]5OC(O)[C@H](NC(C)=O)[C@@H](O)[C@@H]5O)[C@H](NC(C)=O)[C@@H](O)[C@@H]4O)[C@H](N)[C@@H](O)[C@@H]3O)[C@H](NC(C)=O)[C@@H](O)[C@@H]2O)O[C@H](CO)[C@@H](O)[C@@H]1O (stereo partly drawn) [(GlcNAc)2-GlcN-(GlcNAc)2]	No binding	2300	1300	–	–	–
CC(=O)N[C@H]1[C@H](O[C@H]2[C@@H](O)[C@@H](CO)O[C@@H](O[C@@H]([C@H](O)[C@@H](O)C=O)[C@H](O)CO)[C@@H]2O)O[C@H](CO)[C@@H](O)[C@@H]1O[C@@H]1O[C@H](CO)[C@H](O)[C@H](O)[C@H]1O[C@@H]1O[C@@H](C)[C@@H](O)[C@@H](O)[C@@H]1O [LNF1, lacto-N-fucopentaose, reference compound]	–	–	–	No binding	No binding	–
B1	–	–	–	–	–	73.8 ± 6.3

From PMC9384988, “The TPR domain of PgaA is a multifunctional scaffold that binds PNAG and modulates PgaB-dependent polymer processing” (PLoS Pathogens, 2022)
